This passage reports inhibition results from US9187471B2, “Pyrido [4,3-b] indole and pyrido [3,4-b] indole derivatives and methods of use” (Medivation Technologies, Inc., priority 2010, dated 2015).

What is called inhibition is the share of the control response that was lost under treatment.

One test deals with T1, Adrenergic α1B (Rattus norvegicus, UniProt P15823).
T1 construct: rat adrenergic α1D receptor obtained from Wistar Rat liver; from tissue; host or cells: Wistar rat liver
T1 sequence (P15823 1-515): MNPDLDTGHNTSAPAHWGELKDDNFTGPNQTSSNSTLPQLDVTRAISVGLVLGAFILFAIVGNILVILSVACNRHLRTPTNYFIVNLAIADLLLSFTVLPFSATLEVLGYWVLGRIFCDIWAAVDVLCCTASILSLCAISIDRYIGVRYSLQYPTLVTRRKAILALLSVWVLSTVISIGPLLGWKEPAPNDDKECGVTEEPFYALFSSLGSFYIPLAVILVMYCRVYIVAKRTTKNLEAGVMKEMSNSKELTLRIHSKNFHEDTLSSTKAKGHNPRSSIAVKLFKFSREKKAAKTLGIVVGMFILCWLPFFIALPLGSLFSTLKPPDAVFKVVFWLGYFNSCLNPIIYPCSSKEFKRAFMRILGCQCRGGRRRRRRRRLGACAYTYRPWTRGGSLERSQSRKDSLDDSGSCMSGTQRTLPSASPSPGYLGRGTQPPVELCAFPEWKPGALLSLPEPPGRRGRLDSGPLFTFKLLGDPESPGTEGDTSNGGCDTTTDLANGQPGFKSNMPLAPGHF
The test can be described thus: Adrenergic α1B radioligand binding ([3H]Prazosin). Conditions: read-out: Adrenergic (0.1 μM) a1B, percent inhibition of specific binding; compound at 0.1 μM; 0.25 nM [3H]Prazosin; Wistar Rat liver.

The target of test [1] is T2, human recombinant adrenergic α1D receptor (Homo sapiens, UniProt P25100).
T2 construct: expressed in transfected cells; host or cells: HEK-293
T2 sequence (P25100 1-572): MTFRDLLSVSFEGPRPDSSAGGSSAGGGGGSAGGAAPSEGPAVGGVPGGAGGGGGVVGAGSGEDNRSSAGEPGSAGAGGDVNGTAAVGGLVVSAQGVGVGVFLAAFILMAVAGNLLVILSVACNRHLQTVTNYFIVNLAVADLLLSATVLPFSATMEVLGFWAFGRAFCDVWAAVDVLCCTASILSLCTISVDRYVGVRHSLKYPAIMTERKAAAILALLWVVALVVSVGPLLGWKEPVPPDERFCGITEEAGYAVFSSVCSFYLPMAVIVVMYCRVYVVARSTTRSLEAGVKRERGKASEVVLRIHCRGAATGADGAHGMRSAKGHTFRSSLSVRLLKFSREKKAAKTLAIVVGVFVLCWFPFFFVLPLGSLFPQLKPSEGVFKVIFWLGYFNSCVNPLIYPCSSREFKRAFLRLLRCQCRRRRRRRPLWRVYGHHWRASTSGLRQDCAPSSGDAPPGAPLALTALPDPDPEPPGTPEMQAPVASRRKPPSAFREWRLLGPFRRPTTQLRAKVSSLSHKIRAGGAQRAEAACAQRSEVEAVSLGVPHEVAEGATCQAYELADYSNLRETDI
Nature of the test: Adrenergic α1D radioligand binding ([3H]Prazosin). The note with it: read-out: Adrenergic (0.1 μM) a1D, percent inhibition of specific binding; compound at 0.1 μM; 0.6 nM [3H]Prazosin.
Procedure: Compounds of invention were incubated with 0.6 nM [^3H]Prazosin for 60 min at 25° C. Non-specific binding was estimated in the presence of 10 μM phentolamine. Receptor proteins were filtered and washed, the filters were then counted to determine [^3H]Prazosin specifically bound. […] Compounds of the invention were tested in this biochemical assay and percent inhibition of specific binding was determined.

Procedure for Adrenergic α1B: To evaluate in radioligand binding assays the activity of compounds of the invention, rat adrenergic α1D receptor obtained from Wistar Rat liver (Garcia-S'ainz, J. et al, Biochem. Biophys. Res. Commun. 186:760, 1992; Michel, A. et al, Br. J. Pharmacol. 98:883, 1989) in a modified Tris-HCl buffer (50 mM Tris-HCl buffer, pH 7.4, 0.5 mM EDTA) was used. Compounds of the invention were incubated with 0.25 nM [^3H]Prazosin for 60 min at 25° C. Non-specific binding was estimated in the presence of 10 μM phentolamine Receptor proteins were filtered and washed, the filters were then counted to determine [^3H]Prazosin specifically bound. […] Compounds of the invention were tested in this biochemical assay and percent inhibition of specific binding was determined.

`Cc1ccc2c(c1)c1c(n2-c2cscc2-c2ccc3c(ccn3C)c2)CCN(C)C1` [Compound 33]: the inhibition at 0.1 µM on Adrenergic α1B is 52%.

In the case of `CNC(=O)c1cccc(-c2ccc(-n3c4c(c5cc(C)ccc53)CN(C)CC4)nc2)c1` [Compound No. 143, 3-(6-(2,8-dimethyl-3,4-dihydro-1H-pyrido[4,3-b]indol-5(2H)-yl)pyridin-3-yl)-N-methylbenzamide], the results for the inhibition at 0.1 µM (in test [1]; on Adrenergic α1B) were 72% and 83%, respectively.
